We go through 26 compounds from US20220364989A1, “METHOD FOR MEASURING PHOTOTOXICITY OR PHOTOALLERGY AND REAGENT FOR USE THEREIN” (FUJIFILM Corporation, priority 2018, published 2022).

Where two headings read alike, the source gives them in different places.

Data set [1] is described as follows: NAC depletion under and without ultraviolet irradiation, HPLC with UV detection (281 nm). Conditions: single compound.
Procedure: (§1) A 1 mmol/L solution of a test substance in water, acetonitrile, acetone, or 5% by mass dimethyl sulfoxide (DMSO)/acetonitrile solution is prepared and used as a test substance solution. A solvent in which the test substance is soluble at a concentration of 1 mmol/L is used. If the test substance is soluble in a plurality of solvents, the solvent is selected in the following order of priority: water, acetonitrile, acetone, and 5% by mass DMSO/acetonitrile.
(§2) Test substance solutions are prepared on a 96-well plate (U96 PP-0.5 ML NATURAL, Thermo (NUNC)), mainly using a 12-channel pipette, and the reagents are added in the following amounts:
(§3) Nucleophilic reagents (NAC and NAL): 150 μL
Test substance solution: 50 μL […]
(§4) For measurements using a fluorescence detector, 180 μL of the reaction stop solution (0.5% (v/v) TFA) is dispensed into each well of another plate in advance, and 20 μL of each sample is added so that the sample is diluted 10-fold.
(§5) The depletion of NAC or NAL is calculated from the average (n=3) peak area of unreacted NAC or NAL after the reaction and the average (n=3) peak area of NAC or NAL in a standard solution (no test substance added) by the following equations: […]
The average peak area of unreacted NAC after the reaction is the average area calculated from three measurements on unreacted NAC after the reaction. […]
The nature of data set [2]: NAL depletion under and without ultraviolet irradiation, HPLC with UV detection (281 nm). The conditions noted are these: single compound.
Procedure: as §1, §2, §3
Test substance solution: 50 μL […]
as §4, §5
The average peak area of unreacted NAL after the reaction is the average area calculated from three measurements on unreacted NAL after the reaction. […]
The nature of data set [3]: Average score of NAC and NAL depletion and phototoxicity or photoallergy determination, UV detection. The conditions noted are these: single compound.
Procedure: (§6) After being spun down in a centrifuge, the reaction solutions are irradiated with light at 2,000 μW/cm^2 using an SXL-2500V2 ultraviolet irradiation apparatus (manufactured by SERIC., Ltd.) for 1 hour, followed by incubation at 25° C. in a light-shielded state for 23 hours. As controls without light irradiation, reaction solutions are prepared, followed by incubation at 25° C. in a light-shielded state for 24 hours.
(§7) As the conditions without light irradiation, the 1 mmol/L test substance solutions were each reacted with the nucleophilic reagents, namely, NAC and NAL, at 25° C. for 24 hours. As the conditions with light irradiation, the 1 mmol/L test substance solutions were each irradiated at room temperature with light at 2,000 μW/cm^2 for 1 hour and were then reacted at 25° C. for 23 hours.
All reactions were performed on the 96-well plate. For each sample, n=3. […] The reaction solutions were prepared such that the concentrations of NAC and NAL were 5 μmon and the concentration of the test substance was 0.25 mmol/L. After 24 hours, HPLC measurements were made by two detection methods, namely, light absorption detection on a photodiode array (PDA) detector and fluorescence detection on a fluorescence detector. […] For fluorescence detection, each sample was diluted tenfold with a 0.5% (v/v) trifluoroacetic acid (TFA) aqueous solution before use in the HPLC measurements. […]
Data set [4] in a line: Average score of NAC and NAL depletion and phototoxicity or photoallergy determination, fluorescence detection. Conditions: single compound.
Procedure: as §6, §7
(§8) All reactions were performed on the 96-well plate. For each sample, n=3. As comparative controls, reaction solutions to which only the solvents, which are used to dissolve the test substances, were added were also prepared. The reaction solutions were prepared such that the concentrations of NAC and NAL were 5 μmon and the concentration of the test substance was 0.25 mmol/L. After 24 hours, HPLC measurements were made by two detection methods, namely, light absorption detection on a photodiode array (PDA) detector and fluorescence detection on a fluorescence detector. For PDA detection, a trifluoroacetic acid (TFA) aqueous solution was added to the reaction solutions to a final TFA concentration of 0.5% (v/v) before use in the HPLC measurements. For fluorescence detection, each sample was diluted tenfold with a 0.5% (v/v) trifluoroacetic acid (TFA) aqueous solution before use in the HPLC measurements.
The depletions of the nucleophilic reagents (NAC and NAL) were determined by UV detection at 281 nm or fluorescence detection at an excitation wavelength of 284 nm and a fluorescence wavelength of 333 nm under the HPLC measurement conditions given in “(5) HPLC Measurement” above.
As the conditions without light irradiation, the liquid mixtures were each reacted with the nucleophilic reagents, namely, NAC and NAL, at 25° C. for 24 hours. As the conditions with light irradiation, the liquid mixtures were each irradiated at room temperature with light at 2,000 μW/cm^2 for 1 hour and were then reacted at 25° C. for 23 hours.
All reactions were performed on the 96-well plate. For each sample, n=3. Reaction solutions to which only the solvent used for calculation of the depletions of NAC and NAL was added were also prepared. The reaction solutions were prepared such that the concentrations of NAC and NAL were 5 μmon and the concentration of the test substance was 0.5 mmol/L. After 24 hours, HPLC measurements were made by two detection methods, namely, light absorption detection on a photodiode array (PDA) detector and fluorescence detection on a fluorescence detector. For PDA detection, a trifluoroacetic acid (TFA) aqueous solution was added to the reaction solutions to a final TFA concentration of 0.5% (v/v) before use in the HPLC measurements.
Data set [5] can be described thus: NAC depletion under and without ultraviolet irradiation, HPLC with fluorescence detection (284 nm excitation, 333 nm fluorescence). The conditions noted are these: single compound.
Procedure: as §1, §2, §3
Test substance solution: 50 μL
(§9) The plate is firmly sealed with a plate seal (resistant embossed seal, Shimadzu GLC Ltd.) and is shaken on a plate shaker (Titramax 100, Heidolph Instruments). After being spun down in a centrifuge, the reaction solutions are irradiated with light at 2,000 μW/cm^2 using an SXL-2500V2 ultraviolet irradiation apparatus (manufactured by SERIC., Ltd.) for 1 hour, followed by incubation at 25° C. in a light-shielded state for 23 hours. As controls without light irradiation, reaction solutions are prepared, followed by incubation at 25° C. in a light-shielded state for 24 hours.
as §4
(§10) The depletion of NAC or NAL is calculated from the average (n=3) peak area of unreacted NAC or NAL after the reaction and the average (n=3) peak area of NAC or NAL in a standard solution (no test substance added) by the following equations:
NAC depletion (% depletion)=[1−(average peak area of unreacted NAC after reaction/average peak area of NAC) in standard solution (no test substance added)]×100
The average peak area of unreacted NAC after the reaction is the average area calculated from three measurements on unreacted NAC after the reaction. The average peak area of NAC in a standard solution (no test substance added) is the average area calculated from three measurements on NAC in a reaction solution prepared by adding the solvent used for dissolution of the test substance instead of the test substance solution.
as §7, §8
Data set [6] in a line: NAL depletion under and without ultraviolet irradiation, HPLC with fluorescence detection (284 nm excitation, 333 nm fluorescence). Conditions: single compound.
Procedure: as §1, §2, §3
Test substance solution: 50 μL
as §9, §4, §10
NAL depletion (% depletion)=[1−(average peak area of unreacted NAL after reaction/average peak area of NAL) in standard solution (no test substance added)]×100
The average peak area of unreacted NAL after the reaction is the average area calculated from three measurements on unreacted NAL after the reaction. The average peak area of NAL in a standard solution (no test substance added) is the average area calculated from three measurements on NAL in a reaction solution prepared by adding the solvent used for dissolution of the test substance instead of the test substance solution.
as §7, §8
For data set [7] the following is noted: cited from earlier work.
The conditions of data set [8]: cited from earlier work. This is another data set of the same source.

In the case of `CC(O)CO` (racemic) [compound 54], the “Difference in depletion (under light irradiation - without light irradiation) NAC (%)” value is given as 0.2% in data set [1] and 0.0% in data set [5]. Besides, the “NAC Depletion (%)” value in data set [1] (without light irradiation) and in data set [5] (without light irradiation) was 0.0% throughout. Moreover, the “Difference in depletion (under light irradiation - without light irradiation) NAL (%)” value in data set [2] amounted to 0.0%; in data set [6], 0.7%. In addition, the “NAL Depletion (%)” value in data set [2] (without light irradiation) and in data set [6] (without light irradiation) was 0.0% each time. Further, the figures for the “Difference in depletion (under light irradiation - without light irradiation) Average score (%)” value in data set [3] and in data set [4] were 0.1% and 0.3%, respectively. In addition, the “Average score (%)” value in data set [3] (without light irradiation) and in data set [4] (without light irradiation) was 0.0% in each case.
As for `COc1c2occc2cc2ccc(=O)oc12` [No. 3, 8-Methoxypsoralen, reference compound], the In vivo phototoxicity result in data set [7] (in vivo) is recorded as “Positive”. Further, the In vivo photoallergy entry in data set [8] (in vivo) was “Positive”. The “Average score (%)” value in data set [4] (under light irradiation) is 72.0%. Further, in data set [5] (under light irradiation), the “NAC Depletion (%)” value amounted to 98.6%. Further, the “NAL Depletion (%)” value in data set [6] (under light irradiation) turned out to be 45.4%.
`Cc1c([N+](=O)[O-])c(C)c([N+](=O)[O-])c(C(C)(C)C)c1[N+](=O)[O-]` [No. 18, Musk xylene, reference compound]: in data set [7] (literature classification), the In vivo phototoxicity entry is “Negative”. In data set [8] (literature classification), the In vivo photoallergy result is “Positive”. Also, in data set [4] (under light irradiation), the “Average score (%)” value is listed as 47.6%. Also, the “NAC Depletion (%)” value in data set [5] (under light irradiation) is given as 88.9%. Also, the “NAL Depletion (%)” value in data set [6] (under light irradiation) is reported as 6.4%.
As for `c1ccc2cc3ccccc3cc2c1` [No. 35, Anthracene], the In vivo phototoxicity entry in data set [7] (literature classification) is given as “Positive”. Moreover, the In vivo photoallergy result in data set [8] (literature classification) is on record as “Negative”.
For the compound `Cc1ccc(C=C2C(=O)C3(C)CCC2C3(C)C)cc1` (stereo not shown) [No. 39, 4′-Methylbenzylidene camphor], the In vivo phototoxicity entry in data set [7] (in vivo) is given as “Negative”. In addition, in data set [8] (in vivo), the In vivo photoallergy result is “Negative”. Besides, in data set [4] (under light irradiation), the “Average score (%)” value was determined as 2.0%.
For the compound `CC(=O)Oc1ccccc1C(=O)O` [No. 40, Aspirin], the In vivo phototoxicity result in data set [7] (literature classification) was “Negative”. Also, in data set [8] (literature classification), the In vivo photoallergy entry was “Negative”.
Turning to `CCOC(=O)c1ccc(N)cc1` [No. 41, Benzocaine], the In vivo phototoxicity result in data set [7] (literature classification) was “Negative”. The In vivo photoallergy entry in data set [8] (literature classification) is listed as “Negative”.
In the case of `COC(=O)c1ccccc1O` [No. 43, Methyl salicylate], in data set [7] (literature classification), the In vivo phototoxicity result is “Negative”. Also, in data set [8] (literature classification), the In vivo photoallergy entry is given as “Negative”.
Turning to `CC1(C)S[C@@H]2[C@H](NC(=O)Cc3ccccc3)C(=O)N2[C@H]1C(=O)O` [No. 44, Penicillin G, reference compound], the In vivo phototoxicity result in data set [7] (literature classification) is “Negative”. Further, the In vivo photoallergy entry in data set [8] (literature classification) is “Negative”. Moreover, the “Average score (%)” value in data set [4] (under light irradiation) is given as 1.8%. The “NAC Depletion (%)” value in data set [5] (under light irradiation) is recorded as 2.4%. Moreover, in data set [6] (under light irradiation), the “NAL Depletion (%)” value was 1.2%.
In the case of `O=C1NC(=O)C(c2ccccc2)(c2ccccc2)N1` [No. 45, Phenytoin], the In vivo phototoxicity entry in data set [7] (literature classification) and in data set [7] (reported in References 1 to 3) was “Negative” each time. The In vivo photoallergy result in data set [8] (literature classification) was “Negative”; in data set [8] (reported in References 1 and 2) it was “Negative”.
For the compound `CC(C)O` [No. 47, 2-Propanol], the In vivo phototoxicity result in data set [7] (in vivo) is on record as “Negative”. In data set [8] (in vivo), the In vivo photoallergy entry is given as “Negative”. The “Average score (%)” value in data set [4] (under light irradiation) is on record as 0.2%.
With `CCCCCCCCCCCCCCCCO` [No. 49, Cetyl alcohol], the In vivo phototoxicity entry in data set [7] (literature classification) is reported as “Negative”. The In vivo photoallergy result in data set [8] (literature classification) was “Negative”.
In the case of `CCO` [No. 50, Ethanol], in data set [7] (in vivo), the In vivo phototoxicity result is on record as “Negative”. For the same compound, the In vivo photoallergy result in data set [8] (in vivo) is recorded as “Negative”. Also, the “Average score (%)” value in data set [4] (under light irradiation) amounted to 0.0%.
Consider `CCCCCCCCCCCCCC(=O)OC(C)C` [No. 52, Isopropyl myristate], for which the In vivo phototoxicity entry in data set [7] (literature classification) is reported as “Negative”. In data set [8] (literature classification), the In vivo photoallergy entry is on record as “Negative”.
For `CCCCCCCCCCCC(=O)O` [No. 53, Lauric acid], the In vivo phototoxicity result in data set [7] (literature classification) is listed as “Negative”. In data set [8] (literature classification), the In vivo photoallergy entry is recorded as “Negative”.
For the compound `COc1cc(O)c(C(=O)c2ccccc2)cc1S(=O)(=O)O` [No. 57, Sulisobenzone], the In vivo phototoxicity result in data set [7] (literature classification) is “Negative”. Moreover, the In vivo photoallergy result in data set [8] (literature classification) was “Negative”.
Take `Cc1ncc(CO)c(CO)c1O.Cl` [compound 9, Pyridoxine HCl]: in data set [7] (in vivo), the In vivo phototoxicity result is listed as “Positive”. For the same compound, the In vivo photoallergy entry in data set [8] (in vivo) is given as “Positive”.
With `Nc1ccc(N)cc1` [compound 11, p-Phenylenediamine], the In vivo phototoxicity result in data set [7] (in vivo) is “Positive”. Moreover, the In vivo photoallergy result in data set [8] (reported in References 1 and 2) is on record as “Positive”.
For `CNc1ccccc1C(=O)OC` [compound 32, Methyl-N-methylanthranilate], in data set [7] (reported in References 1 to 3), the In vivo phototoxicity result was “Positive”. In addition, in data set [8] (reported in References 1 and 2), the In vivo photoallergy entry is “Negative”.
Consider `c1ccc2nc3ccccc3cc2c1` [compound 34, Acridine], for which the In vivo phototoxicity result in data set [7] (reported in References 1 to 3) is on record as “Positive”. Moreover, the In vivo photoallergy result in data set [8] (reported in References 1 and 2) is reported as “Negative”.
`c1ccc2cc3ccccc3cc2c1` [compound 35, Anthracene]: the In vivo phototoxicity entry in data set [7] (reported in References 1 to 3) is on record as “Positive”. Moreover, the In vivo photoallergy result in data set [8] (reported in References 1 and 2) is “Negative”.
Consider `COC(=O)c1ccccc1O` [compound 43, Methyl salicylate], for which, in data set [7] (reported in References 1 to 3), the In vivo phototoxicity entry is “Negative”. For the same compound, in data set [8] (reported in References 1 and 2), the In vivo photoallergy result is “Negative”.
Take `CCCCCCCCCCCCCC(=O)OC(C)C` [compound 52, Isopropyl myristate]: in data set [7] (reported in References 1 to 3), the In vivo phototoxicity result is “Negative”. Moreover, the In vivo photoallergy entry in data set [8] (reported in References 1 and 2) is “Negative”.
`CCCCCCCCCCCC(=O)O` [compound 53, Lauric acid]: the In vivo phototoxicity result in data set [7] (reported in References 1 to 3) was “Negative”. The In vivo photoallergy result in data set [8] (reported in References 1 and 2) is “Negative”.
Turning to `CCCCCCCCCCCC(=O)[O-].[Na+]` [compound 55, Sodium laurate], the In vivo phototoxicity entry in data set [7] (in vivo) is on record as “Negative”. The In vivo photoallergy result in data set [8] (reported in References 1 and 2) is given as “Negative”.
“Tetrachlorosalicylanilide [No. 12, reference compound]”: the In vivo phototoxicity result in data set [7] (literature classification) is reported as “Positive”. In addition, in data set [8] (literature classification), the In vivo photoallergy entry is “Positive”. The “Average score (%)” value in data set [4] (under light irradiation) turned out to be 92.0%. Besides, the “NAC Depletion (%)” value in data set [5] (under light irradiation) was 97.4%. For the same compound, in data set [6] (under light irradiation), the “NAL Depletion (%)” value is on record as 86.5%.
